Measured values from patent US7192932B1, “Use of immunomodulating agents” (Lauras AS, priority 1997, dated 2007).
“And” between values parts separate entries of the source, which are not always exact repeats. Identical values can stand only once. Marks after values point to notes of the source that are not given here.

Assays:
[1] = tested on: peripheral blood CD3+ T cells; test: TCR/CD3 stimulated proliferation of liposome-transfected CD3+ T cells treated with 8-CPT-cAMP; assay type: cell-based, human; conditions: for IC50: FIG. 10
Protocol: FIG. 8. Reversal of cAMP-mediated inhibition of TUR/CD3 stimulated T cell proliferation by the use of ribozyme to the RIα subunit of protein kinase A type I. TCR/CD3 stimulated proliferation of peripheral blood CD3+ T cells from normal healthy blood donor following treatment with liposomes alone (mock) or with liposomes and RIα ribozyme (RIα rbz, 10 μM) in the absence (solid bars) and presence (open bars) of 8-CPT-cAMP (12,5 μM).
FIG. 9. Reversal of cAMP-mediated inhibition of TCR/CD3 stimulated T cell proliferation by the use of competitor peptide to compete the TCR/CD3 associated anchoring of RIα subunit of protein kinase A type I in T cells. TCR/CD3 stimulated proliferation of peripheral blood CD3+ T cells from normal healthy blood donor following treatment with liposomes alone (mock) or with increasing concentrations (25 to 100 μM) of a competitor peptide (Ht-31) that competes anchoring, to PKA type II or a control peptide (Ht31-P).
FIG. 10. TCR/CD3 stimulated proliferation of peripheral blood CD3+ T cells in the presence of increasing, concentrations of 8-CPT-cAMP. Normalized levels of proliferation of T cells mock transfected with liposomes only (solid circles, continuous line) or incubated with liposomes and Ht31 peptide (35 μM) to compete anchoring of protein kinase A type I (open circles, dotted line) was assessed as [^3H]-thymidine incorporation after 48 h during which [^3H]-thymidine was added for the last 18 h. Note: right shift of the IC50 (arrow) from 1,8 to 4,8 μM in the presence of […].
When transfected as synthetic RNA ribozyme or as a synthetic RNA ribozyme stabilized by incorporation of 2-deoxycytosine and 2-deoxy-uracil analogs into peripheral blood CD3+ T cells, the ribozyme reduced levels of RIα protein to approximately 20% of control levels by removing the RIα mRNA. By this strategy, the majority of protein kinase A type 1 was removed from the T cells. We then assessed the immune responsiveness of CD3+ T cells transfected with ribozyme compared to control (mock) transfected T cells measured as T cell proliferation after activation of T cells by stimulation of the T cell receptor/CD3 complex (TCR/CD3). In order to simulate a T cell dysfunction as that of HIV infection, with elevated levels of cAMP and increased activation of protein kinase A type 1, we treated normal T cells with low dose (12.5 around IC50) of the cAMP analog 8-(4-chlorophenyl)-thio-cAMPS (8-CPT-cAMP). […] For in vivo use pretreatment of ribozymes to allow cellular uptake or introduction into cells as minigenes will be necessary.
We incubated blood CD3+ T cells with increasing concentrations of Ht31 (SEQ. ID. NO 2) peptide. In order to facilitate uptake, cells were treated with liposomes in the presence or absence of-peptide. The optimal concentrations of DOTAP liposomes and anti-CD3 antibody were titrated carefully in order to maintain the membrane stability and normal TCR/CD3-dependent activation of the T cells. Cells were incubated for 20 hours with DOTAP/peptide and incubations continued in the absence (solid bars) or presence of 8-CPT-cAMP (6.25 μM, hatched bars) and activated to proliferation by stimulation of TCR/CD3 T cell immune responsiveness was assessed as [3H]thymidine incorporation.
Next, the effect of the competitor peptide (Ht-31, 35 μM) on T cell proliferation was examined in the presence of increasing concentrations of 8-CPT-cAMP and compared to mock transfected cells treated with the same concentrations of 8-CPT-cAMP (FIG. 10). As shown previously for normal peripheral blood T cells. […] Compared to the left-shifted curves observed with T cells from HIV-infected patients or patients with CIV due to elevated levels of endogenous cAMP activating PKA type 1, the right-shift observed here would be expected to normalize the situation in patients.

[2] = tested on: peripheral blood CD3+ T cells; test: TCR/CD3 (anti-CD3) stimulated T cell proliferation, [3H]-thymidine incorporation; assay type: cell-based, human
Protocol: (§1) Human peripheral blood CD3+ T cells were purified by negative selection from 50 ml of heparin-treated blood from normal healthy donors (Ullevaal University Hospital Blood Center, Oslo. Norway) or patients. Briefly, peripheral blood mononuclear cells were isolated by density gradient (Lymphoprep, NycoMed, Oslo, Norway) centrifugation followed by negative selection using monodisperse magnetic beads directly coated with antibodies to CD14 and CD19 and rat anti-mouse IgG beads coated with antibodies to CD56 and a magnet. Magnetic beads were all from Dynal (Oslo, Norway, cat. no. 111.12, 111.04, and 110.11. respectively) whereas anti-CD56 antibody was from Pharmingen (San Diego, Calif., cat. no. 31660.d). All steps were performed at 4° C.
as §1, with “Peripheral blood” for “Human peripheral blood”, “Center, Oslo,” for “Center, Oslo.”, “selection using,” for “selection using”, “and 110.11,” for “and 110.11.”, “Calif., eat.” for “Calif., cat.”
Proliferation assays were performed by incubation of 0.75×10^6 CM+ T cells/ml in a 100 μl volume in that-bottom 96-well microtiter plates. Activation was achieved by subsequent addition of monodisperse magnetic beads coated with sheep anti-mouse IgG (Dynal. cat. no. 110.02) at a cell:bead ratio of 1:1 followed by addition of antiCD3 (clone SpvT3b) at a final dilution of 1:125,000 for the experiments shown. The optimal concentration of antibody was titrated carefully in the initial setup and parallel experiments at several different dilutions of antibody was always performed. Proliferation was analyzed by incubating, cells for 72 hours during which [^3H]thymidine was included for the last 16 hours. Cells were washed and harvested onto filters using a Scatron harvester (Suffolk, UK) and subsequently analyzed by β-scintillation counting. cAMP analogs, when used, were added 30 min prior to activation by addition of […] antibodies. 8-CPT-cAMP was from Sigorna (St. Louis, Mo.) and Sp- and Rp-8-Br-cAMPS were from BioLog Life Science Company (Bremen, Germany) and were all dissolved to concentrations of 4 to 10 mM in PBS and concentrations calculated using the extinction coefficients given by the manufacturer.

## Nc1ncnc2c1nc(Sc1ccc(Cl)cc1)n2[C@@H]1O[C@@H]2COP(=O)(O)O[C@H]2[C@H]1O [8-CPT-cAMP, 8-(4-chlorophenylthio)cAMP, reference compound]
[1]; mock transfected normal T cells, 8-CPT-cAMP 12.5 μM, FIG. 8
  T cell proliferation in presence of cAMP analog: approximately 20 % of control
[1]; normal T cells incubated with liposomes and Ht31 peptide (35 μM), read-out: apparent IC50, inhibition of TCR/CD3 stimulated proliferation
  IC50: 4800 nM
[1]; normal T cells mock transfected with liposomes only, read-out: IC50, inhibition of TCR/CD3 stimulated proliferation
  IC50: ~1800 nM and 1800 nM
[2]; T cells from HIV seropositive individuals, n=18
  Hill coefficient of cAMP-inhibition curve: 1.19 (1.13–1.40)
[2]; T cells from HIV+ asymptomatic patients, n = 8, median (25 to 75% range)
  Inhibition of proliferation by 8-CPT-cAMP Hill coefficient: 1.18(1.09–1.36)^b
[2]; T cells from HIV+ asymptomatic patients, n = 8, median (25 to 75% range), read-out: Inhibition of proliferation by 8-CPT-cAMP IC50
  IC50: 2260 nM
[2]; T cells from HIV+ symptomatic patients, n = 10, median (25 to 75% range)
  Inhibition of proliferation by 8-CPT-cAMP Hill coefficient: 1.19(1.13–1.40)^o
[2]; T cells from HIV+ symptomatic patients, n = 10, median (25 to 75% range), read-out: Inhibition of proliferation by 8-CPT-cAMP IC50
  IC50: 1870 nM
[2]; T cells from a healthy blood donor, FIG. 1B, read-out: IC50, inhibition of TCR/CD3 stimulated proliferation
  IC50: 6110 nM
[2]; T cells from a representative HIV-infected patient (#10 in Table 2a), FIG. 1B, read-out: IC50, inhibition of TCR/CD3 stimulated proliferation
  IC50: 1780 nM
[2]; T cells from normal controls, n = 8, median (25 to 75% range)
  Inhibition of proliferation by 8-CPT-cAMP Hill coefficient: 1.59(1.40–1.81)
[2]; T cells from normal controls, n = 8, median (25 to 75% range), read-out: Inhibition of proliferation by 8-CPT-cAMP IC50
  IC50: 4590 nM
[2]; T cells from patients on triple combination therapy, n = 9, median (25 to 75% range)
  Inhibition of proliferation by 8-CPT-cAMP Hill coefficient: 1.35(1.33–1.68)
[2]; T cells from patients on triple combination therapy, n = 9, median (25 to 75% range), read-out: Inhibition of proliferation by 8-CPT-cAMP IC50
  IC50: 2590 nM
[2]; T cells of individual CVI patients #1-#7
  Inhibition of proliferation by 8-CPT-cAMP (−Hill coefficient): 1.34 and 1.38 and 2.03 and 1.39 and 1.46 and 1.47 and 1.26
[2]; T cells of individual CVI patients #1-#7, read-out: Inhibition of proliferation by 8-CPT-cAMP (IC50)
  IC50: 3680 nM and 3360 nM and 3160 nM and 2660 nM and 2340 nM and 2980 nM and 2260 nM
[2]; median in 7 CVI patients
  Inhibition of proliferation by 8-CPT-cAMP (−Hill coefficient): 1.39^§
[2]; median in 7 CVI patients, read-out: Inhibition of proliferation by 8-CPT-cAMP (IC50)
  IC50: 2980 nM
[2]; median in 8 healthy controls
  Inhibition of proliferation by 8-CPT-cAMP (−Hill coefficient): 1.59
[2]; median in 8 healthy controls, read-out: Inhibition of proliferation by 8-CPT-cAMP (IC50)
  IC50: 4590 nM
[2]; one healthy control, FIG. 4B, read-out: IC50, inhibition of anti-CD3 stimulated T lymphocyte proliferation
  IC50: 4660 nM
[2]; one representative CVI patient, FIG. 4B, read-out: IC50, inhibition of anti-CD3 stimulated T lymphocyte proliferation
  IC50: 2260 nM
